Assay results as given in patent publication US9416129B2, “Tricyclic substituted thiadiazine dioxide compounds as BACE inhibitors, compositions and their use” (Merck Sharp & Dohme Corp., priority 2012, dated 2016).

Legend:
Cathepsin-D = Cathepsin-D (Homo sapiens (Human), UniProt P07339); experiment: Cathepsin-D inhibition (selectivity); format: biochemical
human autoBACE-2 = human autoBACE-2 (Homo sapiens (Human), UniProt Q9Y5Z0); experiment: BACE-2 assay (BACE-HTRF, time-resolved endpoint proteolysis); format: biochemical; conditions: Ki calculated from IC50 using the Cheng-Prusoff equation; read-out: BACE2 Ki
Protocol: Inhibitor IC50s at purified human autoBACE-2 are determined in a time-resolved endpoint proteolysis assay that measures hydrolysis of the QSY7-[…]-Eu-amide FRET peptide substrate (BACE-HTRF assay). […] DMSO is present at 5% final concentration in the assay. Following laser excitation of sample wells at 320 nm, the fluorescence signal at 620 nm is collected for 400 ms following a 50 μs delay on a RUBYstar HTRF plate reader (BMG Labtechnologies). Raw RFU data is normalized to maximum (1.0 nM BACE/DMSO) and minimum (no enzyme/DMSO) RFU values. […] The Ki values are calculated from the IC50 using the Cheng-Prusoff equation.

[1] = target: soluble human BACE1 catalytic domain (Homo sapiens (Human), UniProt P56817); experiment: BACE1 HTRF FRET assay; format: biochemical; conditions: for Ki: Ki calculated from IC50 using the Cheng-Prusoff equation
From the text: Na^+-Acetate pH 5.0; 1% Brij-35; Glycerol; Dimethyl Sulfoxide (DMSO); Recombinant human soluble BACE1 catalytic domain (>95% pure); APP Swedish mutant peptide substrate (QSY7-APP^swe-Eu): QSY7-[…]-Europium-amide.
A homogeneous time-resolved FRET assay can be used to determine IC50 values for inhibitors of the soluble human BACE1 catalytic domain. This assay monitors the increase of 620 nm fluorescence that resulted from BACE1 cleavage of an APPswedish APP^swe mutant peptide FRET substrate (QSY7-[…]-Europium-amide). This substrate contains an N-terminal QSY7 moiety that serves as a quencher of the C-terminal Europium fluorophore (620 nm Em). In the absence of enzyme activity, 620 nm fluorescence is low in the assay and increased linearly over 3 hours in the presence of uninhibited BACE1 enzyme Inhibition of BACE1 cleavage of the QSY7-APP^swe-Eu substrate by inhibitors is manifested as a suppression of 620 nm fluorescence.
Varying concentrations of inhibitors at 3× the final desired concentration in a volume of 10 ul are preincubated with purified human BACE1 catalytic domain (3 nM in 10 μl) for 30 minutes at 30° C. in reaction buffer containing 20 mM Na-Acetate pH 5.0, 10% glycerol, 0.1% Brij-35 and 7.5% DSMO. Reactions are initiated by addition of 10 μl of 600 nM QSY7-APP^swe-Eu substrate (200 nM final) to give a final reaction volume of […] in a 384 well Nunc HTRF plate. The reactions are incubated at 30° C. for 1.5 hours. The 620 nm fluorescence is then read on a Rubystar HTRF plate reader (BMG Labtechnologies) using a 50 millisecond delay followed by a 400 millisecond acquisition time window. Inhibitor IC50 values are derived from non-linear regression analysis of concentration response curves.

human P-glycoprotein = human P-glycoprotein (Homo sapiens (Human), UniProt P08183); experiment: Pgp Mdr1 efflux ratio; format: in vitro ADME; conditions: for Pgp Mdr1 ER: efflux ratio, human P-glycoprotein
human P-glycoprotein, sequence (P08183 whole entry): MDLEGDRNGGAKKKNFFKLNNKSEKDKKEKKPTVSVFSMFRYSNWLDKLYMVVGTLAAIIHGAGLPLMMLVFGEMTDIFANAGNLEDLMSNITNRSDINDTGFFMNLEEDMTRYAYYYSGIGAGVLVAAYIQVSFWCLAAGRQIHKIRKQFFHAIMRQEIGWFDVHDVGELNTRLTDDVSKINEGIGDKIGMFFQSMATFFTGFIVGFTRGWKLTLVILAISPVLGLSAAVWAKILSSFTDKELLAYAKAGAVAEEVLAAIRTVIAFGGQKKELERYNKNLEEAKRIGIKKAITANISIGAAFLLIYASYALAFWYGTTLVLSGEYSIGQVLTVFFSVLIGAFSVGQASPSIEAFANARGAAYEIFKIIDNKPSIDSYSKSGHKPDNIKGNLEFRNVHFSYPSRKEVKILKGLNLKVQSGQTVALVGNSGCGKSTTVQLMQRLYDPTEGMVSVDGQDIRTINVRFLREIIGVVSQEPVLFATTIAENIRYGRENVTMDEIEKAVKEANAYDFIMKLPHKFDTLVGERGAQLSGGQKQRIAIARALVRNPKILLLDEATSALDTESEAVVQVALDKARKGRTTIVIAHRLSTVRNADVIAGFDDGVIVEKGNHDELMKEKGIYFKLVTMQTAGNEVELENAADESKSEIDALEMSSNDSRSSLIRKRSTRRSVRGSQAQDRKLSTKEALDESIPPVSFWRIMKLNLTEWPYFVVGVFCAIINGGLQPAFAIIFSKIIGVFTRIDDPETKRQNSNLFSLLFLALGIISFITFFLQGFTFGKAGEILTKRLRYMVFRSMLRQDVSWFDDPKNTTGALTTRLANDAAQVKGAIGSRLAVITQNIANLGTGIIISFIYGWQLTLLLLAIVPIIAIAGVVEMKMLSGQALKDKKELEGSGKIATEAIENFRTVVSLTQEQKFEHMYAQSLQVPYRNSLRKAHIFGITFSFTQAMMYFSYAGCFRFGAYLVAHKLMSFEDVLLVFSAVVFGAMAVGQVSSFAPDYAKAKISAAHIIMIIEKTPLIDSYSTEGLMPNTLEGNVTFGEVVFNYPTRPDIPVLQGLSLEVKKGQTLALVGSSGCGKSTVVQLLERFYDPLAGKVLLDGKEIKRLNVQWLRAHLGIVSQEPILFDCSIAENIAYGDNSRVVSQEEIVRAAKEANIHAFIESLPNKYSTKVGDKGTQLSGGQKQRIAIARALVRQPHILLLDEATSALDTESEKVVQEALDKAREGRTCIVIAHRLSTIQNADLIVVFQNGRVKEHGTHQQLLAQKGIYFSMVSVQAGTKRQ

human autoBACE-2, sequence (Q9Y5Z0 63-473 limits assumed): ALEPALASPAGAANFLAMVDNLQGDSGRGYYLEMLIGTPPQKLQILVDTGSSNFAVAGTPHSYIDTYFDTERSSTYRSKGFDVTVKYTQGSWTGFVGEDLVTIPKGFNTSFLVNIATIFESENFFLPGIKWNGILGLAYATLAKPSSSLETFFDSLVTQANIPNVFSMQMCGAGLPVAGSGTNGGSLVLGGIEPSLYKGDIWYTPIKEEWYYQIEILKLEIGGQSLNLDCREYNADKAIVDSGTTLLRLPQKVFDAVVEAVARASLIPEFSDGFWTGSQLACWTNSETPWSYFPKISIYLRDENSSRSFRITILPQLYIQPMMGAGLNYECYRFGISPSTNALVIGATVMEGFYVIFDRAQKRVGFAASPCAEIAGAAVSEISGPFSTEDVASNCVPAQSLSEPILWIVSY
soluble human BACE1 catalytic domain, sequence (P56817 75-416): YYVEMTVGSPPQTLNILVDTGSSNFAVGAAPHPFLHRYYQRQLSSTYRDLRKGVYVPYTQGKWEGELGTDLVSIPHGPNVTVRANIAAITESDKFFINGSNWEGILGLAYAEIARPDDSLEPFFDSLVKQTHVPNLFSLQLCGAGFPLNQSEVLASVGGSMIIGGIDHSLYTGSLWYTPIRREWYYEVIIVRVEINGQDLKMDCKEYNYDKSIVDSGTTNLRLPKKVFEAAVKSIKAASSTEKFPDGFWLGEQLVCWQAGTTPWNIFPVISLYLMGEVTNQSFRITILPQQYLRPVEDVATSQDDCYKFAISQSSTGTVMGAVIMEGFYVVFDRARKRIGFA
Cathepsin-D, sequence (P07339 65-412, species assumed): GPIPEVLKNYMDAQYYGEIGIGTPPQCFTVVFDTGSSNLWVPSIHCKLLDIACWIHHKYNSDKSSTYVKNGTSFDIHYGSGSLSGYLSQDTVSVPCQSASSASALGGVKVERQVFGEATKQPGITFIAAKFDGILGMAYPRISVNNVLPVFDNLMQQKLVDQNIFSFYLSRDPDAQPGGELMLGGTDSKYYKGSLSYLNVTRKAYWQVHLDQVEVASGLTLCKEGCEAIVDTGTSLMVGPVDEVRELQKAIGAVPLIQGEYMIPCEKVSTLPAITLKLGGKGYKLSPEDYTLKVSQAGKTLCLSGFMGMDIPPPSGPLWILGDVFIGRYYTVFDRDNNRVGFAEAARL

| Structure (SMILES) | Ki (Cathepsin-D; read-out: Cath-D Ki) [nM] | Cathepsin-D selectivity (in words) (Cathepsin-D; selectivity for BACE over Cathepsin-D) | Ki (human autoBACE-2) [nM] | BACE potency (in words) [1] | Ki [1] [nM] | Pgp susceptibility (in words) (human P-glycoprotein) | Pgp Mdr1 ER (human P-glycoprotein) |
| --- | --- | --- | --- | --- | --- | --- | --- |
| CN1C(=N)N[C@](C)(c2sc3c(-c4ccc(-n5cccn5)nc4)nccc3c2Cl)CS1(=O)=O [Example 80] | 6970 | good Cathepsin-D selectivity | 16 | good BACE potency | 10 | low Pgp susceptibility | 0.78 |
| CN1C(=N)N[C@](C)(c2sc(-c3cccc(-c4ncco4)c3)cc2F)CS1(=O)=O [Example 7] | – | – | 0.73 | – | 8.7 | – | 1.7 |
| CN1C(=N)N[C@](C)(c2sc(-c3cc(F)cc(-c4cnco4)c3)cc2F)CS1(=O)=O [Example 25] | – | – | 4.8 | – | 12.5 | – | 1.1 |
| CN1C(=N)N[C@](C)(c2sc(-c3cccc(-c4ncon4)c3)cc2F)CS1(=O)=O [Example 47] | – | – | 0.34 | – | 3.9 | – | 1.7 |
| CN1C(=N)N[C@](C)(c2sc(-c3cccc(-c4nnc(C5CC5)o4)c3)cc2F)CS1(=O)=O [Example 18] | – | – | 4.2 | – | 177 | – | 0.53 |
| CN1C(=N)N[C@](C)(c2sc(-c3cccc(-c4nnc(C5CC5)o4)c3)cc2Cl)CS1(=O)=O [Example 17] | – | – | 2.2 | – | 203 | – | 1.0 |
| CN1C(=N)N[C@](C)(c2sc(-c3cccc(-c4cnco4)c3)cc2F)CS1(=O)=O [Example 12] | – | – | 3.7 | – | 3.3 | – | 1.8 |
| Cc1noc(-c2cccc(-c3cc(F)c([C@]4(C)CS(=O)(=O)N(C)C(=N)N4)s3)c2)n1 [Example 38] | – | – | 3.6 | – | 29.1 | – | 1.7 |
| CN1C(=N)N[C@](C)(c2sc(-c3cccc(-c4ncon4)c3)cc2Cl)CS1(=O)=O [Example 46] | – | – | 0.41 | – | 3.3 | – | 0.70 |
| Cc1nc(-c2cccc(-c3cc(F)c([C@]4(C)CS(=O)(=O)N(C)C(=N)N4)s3)c2)no1 [Example 42] | – | – | 1.1 | – | 25.4 | – | 1.2 |
| Cc1nc(-c2cccc(-c3cc(Cl)c([C@]4(C)CS(=O)(=O)N(C)C(=N)N4)s3)c2)no1 [Example 41] | – | – | 0.35 | – | 13.4 | – | 0.34 |
| CN1C(=N)N[C@](C)(c2sc(-c3cccc(-c4cnco4)c3)cc2Cl)CS1(=O)=O [Example 11] | – | – | 2 | – | 1.7 | – | 1.3 |
| CN1C(=N)N[C@](C)(c2sc(-c3cccc(-c4ncco4)c3)cc2Cl)CS1(=O)=O [Example 6] | – | – | 1.4 | – | 4.7 | – | 0.49 |
| CN1C(=N)N[C@](C)(c2sc(-c3cc(F)cc(-c4cnco4)c3)cc2Cl)CS1(=O)=O [Example 23] | – | – | 4.8 | – | 11.4 | – | 0.90 |
